{"source": "patent US20080227757A1", "about": "“Formulation for dermal application” (priority 2005, published 2008)", "key": {"[1]": {"assay": "Octanol-water distribution coefficient (log P), lipophily", "experimental": "The lipophily value P gives low lipophility at a low value of the logarithm of P (log P), and a high value of the log P gives high lipophily. The distribution coefficient P is measured at pH 7.4 and 21° C. in octanol water."}, "[2]": {"assay": "Permeation of active ingredient from formulations through isolated human Stratum corneum (modified Franz cell)", "details": "active ingredient in the inventive formulation", "method": "To determine the permeation of an active ingredient from the inventive formulation compared to conventional formulations containing active ingredients pharmaceutical preparations containing 5-aminolevulinic acid were tested in vitro on isolated human skin.\nHuman Stratum corneum, originating from biopsies of plastic operations, was used as isolated human skin. Following the biopsy subcutaneous fat was removed and the skin was frozen in liquid nitrogen, then stored at −25° C. After gradual thawing the Stratum corneum was isolated by trypsination on filter paper, and impregnated with an aqueous 2% trypsin solution. After incubation at 37° C. for 24 h the Stratum corneum could be lifted off, incubated in a 0.01% aqueous solution trypsin inhibitor and then washed several times in water. This isolated horny layer was dried and stored at room temperature in the desiccator. For permeation examinations a modified Franz cell was used, the compartments of which were separated off through the Stratum corneum. Pretreatment of the Stratum corneum is done by total hydration in water and placement on a polycarbonate filter (Isopor membrane filter, type TMTP, 5.0 μm, Millipore) to boost mechanical stability. The donor compartment was filled with inventive or respectively comparative formulation containing 5-aminolevulinic acid, whereby 5-aminolevulinic acid at 10% by weight was contained in the formulations.\nThe preparation containing 5-aminolevulinic acid, procurable according to Example 2, was tested for permeation as inventive preparation, as compared to a formulation with conventional cream base according to the German Pharmacopoeia (70 parts water, 30 parts hydrophilic salve from 30 parts emulsifying cetylstearyl alcohol (type A), 35 parts viscid paraffin and 35 parts soft Vaseline), and in comparison to a formulation in dolgit microgel (5% by weight ibuprofen, in 2-propanol, dimethyl isosorbide, poloxamer, medium-chain triglycerides, lavender oil, neroli oil and water).\nAfter application the quantity of active ingredient permeated through the skin was measured."}}}
{"molecule": "CCCCOC(=O)CCC(=O)CN", "note": "[5-ALA-butylester, 5-aminolevulinic acid butyl ester]", "values": [{"measurement": "logP", "setting": "[1]; octanol/water, pH 7.4", "result": 1.42}]}
{"molecule": "NCC(=O)CCC(=O)OC1CCCCC1", "note": "[5-ALA-cyclohexylester]", "values": [{"measurement": "log P", "setting": "[1]; octanol water, pH 7.4, 21° C.", "result": 1.494}]}
{"molecule": "Clc1ccccc1C(c1ccccc1)(c1ccccc1)n1ccnc1", "note": "[clotrimazole]", "values": [{"measurement": "logP", "setting": "[1]; pH 7.4", "result": 4.1}, {"measurement": "permeation of the active ingredient from the inventive formulation through the human Stratum corneum", "setting": "[2]", "result": "improvement in permeation"}]}
{"molecule": "CCCCCCOC(=O)CCC(=O)CN", "note": "[5-ALA-hexylester]", "values": [{"measurement": "log P", "setting": "[1]; octanol water, pH 7.4, 21° C.", "result": 1.839}]}
{"molecule": "CC(=O)OCC(=O)[C@@]1(O)CC[C@H]2[C@@H]3CCC4=CC(=O)CC[C@]4(C)[C@H]3[C@@H](O)C[C@@]21C", "note": "[hydrocortisone acetate]", "values": [{"measurement": "logP", "setting": "[1]; pH 7.4", "result": 2.18}, {"measurement": "permeation of the active ingredient from the inventive formulation through the human Stratum corneum", "setting": "[2]", "result": "improvement in permeation"}]}
{"molecule": "CC(=O)Oc1ccccc1C(=O)O", "note": "[acetylsalicylic acid]", "values": [{"measurement": "logP", "setting": "[1]; octanol/water, pH 7.4", "result": -1.15}, {"measurement": "permeation of the active ingredient from the inventive formulation through the human Stratum corneum", "setting": "[2]", "result": "improvement in permeation"}]}
{"molecule": "CCOC(=O)CCC(=O)CN", "note": "[5-ALA-ethylester]", "values": [{"measurement": "log P", "setting": "[1]; octanol water, pH 7.4, 21° C.", "result": 0.8411}]}
{"molecule": "NCC(=O)CCC(=O)O", "note": "[Example 5-ALA, 5-aminolevulinic acid]", "values": [{"measurement": "logP", "setting": "[1]; octanol/water, pH 7.4", "result": -1.52}]}
{"molecule": "CCCCCCCCOC(=O)CCC(=O)CN", "note": "[5-ALA-octylester]", "values": [{"measurement": "log P", "setting": "[1]; octanol water, pH 7.4, 21° C.", "result": 2.6199}]}
{"molecule": "COC(=O)CCC(=O)CN", "note": "[5-ALA-methylester, methyl ester of 5-aminolevulinic acid]", "values": [{"measurement": "log P", "setting": "[1]; pH 7.4", "result": "−0.9423"}]}
{"molecule": "CN(C/C=C/C#CC(C)(C)C)Cc1cccc2ccccc12", "note": "[terbinafine]", "values": [{"measurement": "logP", "setting": "[1]; octanol/water, pH 7.4", "result": 3.3}, {"measurement": "permeation of the active ingredient from the inventive formulation through the human Stratum corneum", "setting": "[2]", "result": "improvement in permeation"}]}
